#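 Compound exposure: 48 hours, 5 concentrations, 96-well plates. The concentration for 50% growth inhibition is given as GI50.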 Active and inactive are the calls of the source. Cut-off read from the data, not from the text of the source: active = GI50 up to about 1.1 µM and inactive = higher.
# Tests used:
# Experiment in all cases: DTP human tumour cell line panel, 48 h
# [1] = test system: 786-0
# [2] = test system: A498
# [3] = test system: A549
# [4] = test system: ACHN
# [5] = test system: CAKI-1
# [6] = test system: CCRF-CEM
# [7] = test system: COLO 205
# [8] = test system: DLD-1
# [9] = test system: DMS-273
# [10] = test system: EKVX
# [11] = test system: HCC 2998
# [12] = test system: HCT-116
# [13] = test system: HCT-15
# [14] = test system: HL-60
# [15] = test system: HOP-18
# [16] = test system: HOP-62
# [17] = test system: HOP-92
# [18] = test system: HT-29
# [19] = test system: IGROV-1
# [20] = test system: K562
# [21] = test system: KM-20L2
# [22] = test system: KM12
# [23] = test system: LOX IMVI
# [24] = test system: LXFL 529
# [25] = test system: M14
# [26] = test system: M19-MEL
# [27] = test system: MOLT-4
# [28] = test system: Malme-3M
# [29] = test system: NCI-H226
# [30] = test system: NCI-H23
# [31] = test system: NCI-H460
# [32] = test system: NCI-H522
# [33] = test system: OVCAR-3
# [34] = test system: OVCAR-4
# [35] = test system: OVCAR-5
# [36] = test system: OVCAR-8
# [37] = test system: RPMI-8226
# [38] = test system: RXF 393
# [39] = test system: SF-268
# [40] = test system: SF-295
# [41] = test system: SF-539
# [42] = test system: SK-MEL-28
# [43] = test system: SK-MEL-2
# [44] = test system: SK-MEL-5
# [45] = test system: SK-OV-3
# [46] = test system: SN12C
# [47] = test system: SNB-19
# [48] = test system: SNB-75
# [49] = test system: SNB-78
# [50] = test system: SR
# [51] = test system: TK-10
# [52] = test system: U-251
# [53] = test system: UACC-257
# [54] = test system: UACC-62
# [55] = test system: UO-31
# [56] = test system: XF498
compound,measurement,setting,value
CCOC(=O)C1=C(OC(OCC)C(C)[Se]c2ccccc2)CCC1 (stereo unspecified),GI50,[1],12.5 µM (inactive)
same,GI50,[2],> 100 µM (inactive)
same,GI50,[3],49.9 µM (inactive)
same,GI50,[4],26.9 µM (inactive)
same,GI50,[5],51.1 µM (inactive)
same,GI50,[6],16.5 µM (inactive)
same,GI50,[7],25.1 µM (inactive)
same,GI50,[8],19.3 µM (inactive)
same,GI50,[9],10.3 µM (inactive)
same,GI50,[10],21.6 µM (inactive)
same,GI50,[11],78.3 µM (inactive)
same,GI50,[12],18.9 µM (inactive)
same,GI50,[13],17.5 µM
same,GI50,[14],4.16 µM (inactive)
same,GI50,[15],20.8 µM (inactive)
same,GI50,[16],64.6 µM (inactive)
same,GI50,[17],24.5 µM (inactive)
same,GI50,[18],28.1 µM (inactive)
same,GI50,[19],26.4 µM (inactive)
same,GI50,[20],42.8 µM (inactive)
same,GI50,[21],29.2 µM (inactive)
same,GI50,[22],59 µM (inactive)
same,GI50,[23],7.21 µM (inactive)
same,GI50,[24],14.3 µM (inactive)
same,GI50,[25],20.5 µM (inactive)
same,GI50,[26],15.8 µM (inactive)
same,GI50,[27],15.9 µM (inactive)
same,GI50,[28],28.1 µM (inactive)
same,GI50,[29],16.6 µM (inactive)
same,GI50,[30],12.4 µM (inactive)
same,GI50,[31],25.4 µM (inactive)
same,GI50,[32],13.1 µM (inactive)
same,GI50,[33],14.7 µM (inactive)
same,GI50,[34],18 µM (inactive)
same,GI50,[35],51.2 µM (inactive)
same,GI50,[36],16 µM (inactive)
same,GI50,[37],13 µM (inactive)
same,GI50,[38],15.7 µM (inactive)
same,GI50,[39],13.3 µM (inactive)
same,GI50,[40],19.8 µM (inactive)
same,GI50,[41],17.5 µM (inactive)
same,GI50,[42],22.6 µM (inactive)
same,GI50,[43],> 100 µM (inactive)
same,GI50,[44],19.1 µM (inactive)
same,GI50,[45],94 µM (inactive)
same,GI50,[46],14.6 µM (inactive)
same,GI50,[47],36.1 µM (inactive)
same,GI50,[48],30.1 µM (inactive)
same,GI50,[49],97.1 µM (inactive)
same,GI50,[50],6.4 µM (inactive)
same,GI50,[51],> 100 µM (inactive)
same,GI50,[52],6.78 µM (inactive)
same,GI50,[53],39.7 µM (inactive)
same,GI50,[54],15.2 µM (inactive)
same,GI50,[55],24.7 µM (inactive)
same,GI50,[56],16.1 µM (inactive)

# Source: ChEMBL document CHEMBL1201862, “PubChem BioAssay data set” (2004)
